Assay in all cases: NCI-60 cell line screen, 48 h
Experiment [1] has as its system A498.
Experiment [2] deals with CCRF-CEM.
The test system of experiment [3] is HCT-15.
Experiment [4] deals with HL-60.
The test system of experiment [5] is K562.
The test system of experiment [6] is NCI-H226.
Experiment [7] has as its system NCI-H23.
Experiment [8] relates to NCI-H460.
The subject of experiment [9] is NCI-H522.
The subject of experiment [10] is OVCAR-4.
Experiment [11] relates to OVCAR-8.
For experiment [12], the system named is RPMI-8226.
For experiment [13], the system named is RXF 393.
The test system of experiment [14] is SF-539.
The subject of experiment [15] is SK-MEL-28.
Experiment [16] concerns SK-MEL-5.
In experiment [17] the test system is SNB-19.
Experiment [18] deals with UACC-257.
Experiment [19] has as its system UO-31.
Experiment [20] has as its system HCC 2998.

The values below come from ChEMBL document CHEMBL1201862, “PubChem BioAssay data set” (2004).

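Following 48 hours of exposure in 96-well plates, responses at five concentrations were used to interpolate endpoints linearly. GI50 = concentration required for 50% inhibition of growth.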 Activity calls are given as the source filed them. No stated cut-off is given here; in the data, active = GI50 up to about 1.1 µM and inactive = higher.

As for `CC1(C)CCC(C)(C)c2c1ccc(O)c2Cc1c(O)ccc2c1C(C)(C)CCC2(C)C`, the GI50 in experiment [1] is 1.79 µM (inactive); in experiment [2], 2.31 µM (inactive); in [3], 1.92 µM; in experiment [4], 2.76 µM (inactive); in experiment [5], 2.19 µM (inactive); in experiment [6], 1.88 µM (inactive). The GI50 in [7] was 2.04 µM (inactive); in [8], 2.47 µM (inactive); in experiment [9], 1.97 µM (inactive); in [10], 1.81 µM (inactive); in experiment [11], 2.13 µM (inactive); in experiment [12], 1.87 µM (inactive). Also, the GI50 was 1.87 µM (inactive) in [13]; 1.99 µM (inactive) in experiment [14]; 2.12 µM (inactive) in [15]; 1.87 µM (inactive) in experiment [16]; 2.28 µM (inactive) in [17]; 1.85 µM (inactive) in experiment [18]. Moreover, the GI50 in experiment [19] was 1.92 µM (inactive).
With `Clc1nc(Cl)nc(Nc2cccc3ccccc23)n1`, the GI50 in experiment [1] is > 10 µM (inactive); in [2], > 10 µM (inactive); in experiment [20] it was > 10 µM (inactive); in experiment [3], over 10 µM; in experiment [4] it was 7.98 µM (inactive); in experiment [5] it was > 10 µM (inactive). In addition, the GI50 in experiment [6], in experiment [7], in [8], in [9], in experiment [10] and in experiment [11] was > 10 µM (inactive) in each case. Also, the GI50 in [12], in experiment [13], in experiment [14], in experiment [15], in experiment [16] and in [17] was > 10 µM (inactive) each time. For the same compound, the GI50 in experiment [19] is > 10 µM (inactive).
For `COc1ccc(C(=O)Cc2ccc(Cl)cc2)cc1OC`, the GI50 was > 100 µM (inactive) in experiment [1]; > 100 µM (inactive) in [2]; > 100 µM (inactive) in [20]; over 100 µM in experiment [3]; > 100 µM (inactive) in [4]; > 100 µM (inactive) in experiment [5]. The GI50 in experiment [6] was > 100 µM (inactive); in [7] it was > 100 µM (inactive); in experiment [8] it was > 100 µM (inactive); in experiment [9], 64.9 µM (inactive); in experiment [10], > 100 µM (inactive); in experiment [11], > 100 µM (inactive). Moreover, the GI50 in experiment [12], in experiment [13], in [14], in [16], in experiment [17] and in experiment [18] was > 100 µM (inactive) in each case. Besides, in experiment [19], the GI50 was > 100 µM (inactive).
For the compound `Cc1cc(Cl)ccc1NC1=NC(=O)C(CC(=O)Nc2cccc(Cl)c2)S1` (stereo not drawn), the GI50 in [1] was 23.8 µM (inactive); in experiment [2], 22.6 µM (inactive); in experiment [20], 63.2 µM (inactive); in experiment [3], 32.1 µM; in experiment [4], 9.16 µM (inactive); in [5], 13.8 µM (inactive). The GI50 is > 100 µM (inactive) in [6]; 12.9 µM (inactive) in experiment [7]; 62.2 µM (inactive) in experiment [8]; 26.5 µM (inactive) in experiment [9]; 29.2 µM (inactive) in experiment [10]; > 100 µM (inactive) in experiment [11]. Further, the GI50 in experiment [13] is 12.1 µM (inactive); in [14], 77.6 µM (inactive); in experiment [15] it was > 100 µM (inactive); in [16] it was 24.9 µM (inactive); in experiment [17], > 100 µM (inactive); in experiment [18] it was 38.8 µM (inactive). Also, the GI50 in [19] was 29.7 µM (inactive).
On to `CC1(C)C(=O)c2ccccc2OC1N1CCN(C2Oc3ccccc3C(=O)C2(C)C)CC1` (stereo not drawn), for which the GI50 in experiment [1] was 24.5 µM (inactive); in experiment [2], > 100 µM (inactive); in [20] it was > 100 µM (inactive); in experiment [3], over 100 µM; in experiment [4], > 100 µM (inactive); in experiment [5], > 100 µM (inactive). The GI50 in [6], in experiment [7], in experiment [8], in [9], in experiment [10] and in experiment [12] was > 100 µM (inactive) throughout. The GI50 is 48.1 µM (inactive) in experiment [13]; > 100 µM (inactive) in experiment [15]; > 100 µM (inactive) in experiment [16]; > 100 µM (inactive) in [17]; > 100 µM (inactive) in experiment [19].
In the case of `COC(=O)C1CC=C(SC(=O)c2ccccc2)N1C(=O)c1ccccc1` (stereo not drawn), the GI50 in experiment [1] was > 100 µM (inactive); in [20], > 100 µM (inactive); in experiment [3], over 100 µM; in experiment [5] it was > 100 µM (inactive); in experiment [7], > 100 µM (inactive); in experiment [8], 39.6 µM (inactive). Moreover, the GI50 in [9], in experiment [10], in experiment [11], in experiment [12], in experiment [13] and in experiment [15] was > 100 µM (inactive) throughout. Also, the GI50 in experiment [16], in experiment [17], in experiment [18] and in experiment [19] was > 100 µM (inactive) throughout.
In the case of `CCCCP1(=O)C=CC(Cl)=C(C)C1` (stereo not drawn), the GI50 in experiment [1] was > 100 µM (inactive); in experiment [2] it was > 100 µM (inactive); in experiment [20] it was > 100 µM (inactive); in [3], over 100 µM; in [4] it was > 100 µM (inactive); in experiment [5], > 100 µM (inactive). In addition, the GI50 in experiment [7], in experiment [8], in experiment [9], in [10], in experiment [11] and in experiment [13] was > 100 µM (inactive) in each case. Further, the GI50 in [14], in [15], in experiment [16], in experiment [18] and in experiment [19] was > 100 µM (inactive) throughout.
As for `C=CCN(N=O)C(=O)N(CCC)CCCCC(NC(C)=O)C(=O)NCc1ccccc1` (stereo not drawn), the GI50 in experiment [1] was > 100 µM (inactive); in experiment [2] it was 33.7 µM (inactive); in experiment [3], over 100 µM; in experiment [4], 21 µM (inactive); in experiment [5], 51.6 µM (inactive); in experiment [6], > 100 µM (inactive). In addition, the GI50 in [7] is > 100 µM (inactive); in experiment [8], > 100 µM (inactive); in [9] it was 73.6 µM (inactive); in experiment [10] it was 64.1 µM (inactive); in [11] it was > 100 µM (inactive); in experiment [12], 26.9 µM (inactive). Moreover, the GI50 in [13] is 38.1 µM (inactive); in experiment [14], > 100 µM (inactive); in experiment [15], > 100 µM (inactive); in [16], 67.9 µM (inactive); in experiment [17], > 100 µM (inactive); in experiment [18], > 100 µM (inactive). Besides, the GI50 in experiment [19] was 88.1 µM (inactive).
For `c1ccc(/N=C2\S/C(=N\C3CCCCC3)N(C3CCCCC3)\C2=N/c2ccccc2)cc1`, the GI50 in experiment [1] is > 100 µM (inactive); in experiment [2] it was > 100 µM (inactive); in experiment [20], > 100 µM (inactive); in experiment [3] it was over 100 µM; in experiment [4] it was > 100 µM (inactive); in experiment [5], > 100 µM (inactive). In addition, the GI50 in experiment [6], in experiment [7], in [8], in experiment [9], in experiment [11] and in experiment [12] was > 100 µM (inactive) in each case. Further, the GI50 is > 100 µM (inactive) in experiment [13]; > 100 µM (inactive) in experiment [15]; 80.4 µM (inactive) in [16]; > 100 µM (inactive) in experiment [17]; > 100 µM (inactive) in experiment [19].
Take `c1ccc(COC2(OCc3ccccc3)CC3OC2C2NN=NC32)cc1` (stereo not drawn): the GI50 was > 100 µM (inactive) in [1]; 11.3 µM (inactive) in experiment [2]; > 10 µM (inactive) in experiment [20]; 26 µM in experiment [3]; 11.1 µM (inactive) in experiment [4]; 15.6 µM (inactive) in experiment [5]. The GI50 in [6] was 18.1 µM (inactive); in experiment [7], 17.5 µM (inactive); in experiment [8], 46.1 µM (inactive); in experiment [10], 17.9 µM (inactive); in [12], 13.7 µM (inactive); in [13], 41.7 µM (inactive). Moreover, the GI50 in experiment [14] is 22.1 µM (inactive); in experiment [15], 18.8 µM (inactive); in experiment [16], 17.1 µM (inactive); in experiment [18] it was 18.5 µM (inactive); in experiment [19], 29.7 µM (inactive).
As to `CC1(C)COC(/C=C/C2=NC(C)(C)CO2)=N1`, the GI50 was 0.0401 µM (active) in experiment [1]; 7.59 µM (inactive) in experiment [2]; 15.1 µM in [3]; 20.1 µM (inactive) in experiment [4]; 18.2 µM (inactive) in experiment [5]; 20.9 µM (inactive) in [6]. The GI50 was 23.2 µM (inactive) in experiment [7]; 67 µM (inactive) in experiment [8]; 2.77 µM (inactive) in experiment [9]; 24.7 µM (inactive) in [10]; 20.3 µM (inactive) in experiment [11]; 10 µM (inactive) in [12]. Besides, the GI50 in [13] was 16.3 µM (inactive); in [14], 22 µM (inactive); in experiment [15], 17.6 µM (inactive); in experiment [16] it was 14 µM (inactive); in [17], 68.5 µM (inactive); in experiment [18] it was 29.6 µM (inactive). In addition, in [19], the GI50 is 18.6 µM (inactive).
